Experimental data reported in US9616128B2, “Pharmaceutical compositions comprising paracetamol and process for preparing the same” (Troikaa Pharmaceuticals Ltd, priority 2010, dated 2017).
In brackets after ≈: the same amount, converted by molar mass.

How the values were obtained:
[1] = physchem; conditions: solubility of paracetamol
Description: The solubility of paracetamol in various solvents, such as glycofurol, PEG, ethanol, and propylene glycol were determined by us. […] The challenge lies in tailoring the appropriate solvent system to provide injectables containing paracetamol in 166 mg/ml to 250 mg/ml so that the therapeutic dose of paracetamol (500 mg) can be delivered in 2 to 3 ml without compromising in viscosity of these injectables.

[2] = Viscosity of paracetamol injectable solutions; format: physicochemical; conditions: solution in glycofurol at concentration of 205 mg/ml
Description: The solitary prior art in which the solution of paracetamol ranging from 60 mg/ml (6% w/v) to 150 mg/ml (15% w/v) have been prepared in glycofurol:ethanol:water (about 44:10:46 or about 4:1:4) and glycofurol: water (48:52 or about 1:1). […] 5 CPS and 14.8 CPS respectively. It is to be noted that the concentrations of the solutions reported in the said prior art is between 60 mg/ml to 150 mg/ml.

solubility ([1]; organic solvent or mixture): ~205 mg/mL (≈ 1360 mM)
solubility ([1]; water): ~14 mg/mL (≈ 92.6 mM)
viscosity of the paracetamol solution [2]: about 57 CPS
SMILES: CC(=O)Nc1ccc(O)cc1 [paracetamol, p-acetylaminophenol]
